The values below come from patent US20140357688A1, “METHOD FOR INHIBITING EZH2 EXPRESSION IN BREAST CANCER CELLS” (Yung Shin Pharm. Ind. Co., Ltd., priority 2013, published 2014).

In one data set the test system is EZH2. Briefly: Western blot of EZH2 protein expression in MDA-MB-468 cells. In kind it is cell-based, human. As to the method: Cells were harvested and performed with western blotting analysis. […] The levels of protein expression were quantitated and shown under blots. (C) Cells were transfected with EZH2 shRNA for 0, 1, 2, 3, and 4 days and collected for determination of cell viability (left) and protein expression (right). (D)(E) After 4 days of EZH2 knockdown, cells were incubated with 3 μM YC-1 for 4 h and detected cell viability (D) and protein contents (E). (F) Tumor specimens were isolated and protein was extracted for western blot analysis.
(§1) Cells were lysed in PBS containing proteinase inhibitor and phosphatase inhibitors and sonication. Protein concentration was measured using the Bio-Rad protein assay kit (Bio-Rad Laboratories, Hercules, Calif., USA). Lysate protein was separated by electrophoresis of SDS-PAGE and transferred to Immobilon P membrane (EMD Millipore). The membranes were incubated with appropriate primary antibodies and horseradish peroxidase-conjugated secondary antibodies (EMD Millipore). The signaling was visualized using Chemiluminescence substrate kit (EMD Millipore) and collected by the Luminesence image analyzer, LAS4000 (Fuji Photo Film Co., Tokyo, Japan). The band intensities were analyzed and quantified by the Multi Gauge software (Fuji Photo Film).
Background: A western blot detects proteins with antibodies after separation by electrophoresis.

A further data set relates to EZH2-c-Cbl-ERK. As to the kind of experiment: Co-immunoprecipitation of c-Cbl and EZH2. The following applies: 3 μM YC-1 with MG-132; after 1 h, maximum at 2 h. In kind it is cell-based, human. As to the method: (A) c-Cbl knockdown MDA-MB-468 cells were treated with 3 μM YC-1 for 4 h. Cell were harvested for detection of protein expression. (B) Cells were treated with 3 μM YC-1 for indicated time. Cells were collected and c-Cbl phosphorylation was detected. (C) Cells were pretreated with MG-132 (3 μM) or NH4Cl (30 μM) for 1 h followed by 3 μM YC-1 induction for 6 h. (D) Cells were pretreated with MG-132 and followed by 3 μM YC-1 induction for indicated time. Cells were harvested and lysed for immunoprecipitation assay. The association between c-Cbl and EZH2 were determined by western blotting analysis and probed with anti-EZH2 or anti-c-Cbl antibody. Membranes were stripped and reprobed with anti-c-Cbl or anti-EZH2 antibody to check the input. (E) Cells were preincubated with or without PD98059 (10 μM) in the presence of MG-132 for 1 h prior to 2 h-treatment of 3 μM YC-1. Then cells were collected and lysate protein was subjected for the detection of the c-Cbl-EZH2 complexes.
Cells were lysed with RIPA buffer (50 mM Tris-C1, pH 7.5, 1% Igepal CA-630, 150 mM NaCl, 1 mM EDTA, 1 mM Na3VO4, 1 mM NaF, 1 mM PMSF, 10 μg/ml of leupeptin, aprotinin, and pepstatin A) for 30 min at 4° C. One milligram of cell lysate was incubated with anti-EZH2 or anti-c-Cbl antibody and protein A-Sepharose beads, then gently rotated at 4° C. overnight. […]

Another data set has as its system MDA-MB-468 xenograft. Briefly: MDA-MB-468 breast cancer xenograft animal model. The class given is in vivo, Nu/Nu mice. The method, then:
MDA-MB-468 cells were used to inoculate Nu/Nu mice. (A, left) Tumor bearing mice were given vehicle (10 μl DMSO, CTL) or YC-1 (30 and 60 mg/kg/day) by ip treatment. (B, right) Tumor bearing mice were given vehicle (normal saline, CTL) or YC-1-succinate (YC-1-S; 20, 40, and 80 mg/kg/day) by oral administration. During treatment period, tumor volume and body weights of mice were measured once per 3 days. Data are expressed as mean of tumor volume (mm^3)±S.E.M. from 6 mice (YC-1 treatment) or 10 mice (YC-1-S treatment). Tumor weights (B) and body weights of mice (C) in control and YC-1/YC-1-S-treated groups were recorded.
Nu/Nu female mice (four weeks old) were from National Laboratory Animal Center, Taipei, Taiwan. Mice were maintained under procedures and guidelines from the Institutional Animal Care and Use of the National Health Research Institutes. MDA-MB-468 breast cancer cells (5×10^6 cells per mouse) were suspended in 0.1 ml of Matrigel solution (50%, v/v, Matrigel in 1×PBS) and inoculated into the mammary fat pads of nude mice. When the tumor masses reached to 100 mm^3, the tumor bearing mice were randomly divided into different groups for different dosage of YC-1 treatments. The mice were given by intraperitoneal injection with YC-1 or oral administration of YC-1-succinate. Tumor size and body weights of mice were measured once per 3 days and tumor volume (mm^3) was calculated as the equation: length×[…]. At the end of experiments, mice were sacrificed and tumor nodules were dissected and weighted. Tumor tissues were subjected to western blot analysis.

Data set [1] concerns caspase-8, -9, and -3 and PARP. Briefly: Western blot of caspases and PARP cleavage. In kind it is cell-based, human. As to the method:
(A) Cells were treated with indicated concentration of YC-1 for 6, 24, and 48 h. Cell viability was determined by MTT method. (B) MDA-MB-468 cells were treated with 3 μM YC-1 for 0, 6, and 12 h, and then stained with fluorescence diacetate (FDA) and propidium iodide (PI). Cell morphology was assessed by fluorescence microscopy with magnification ×20 (upper 3 rows) or ×40 (lowest row). (C) MDA-MB-468 cells were treated with 3 μM YC-1 for 24 h, cells were lysed and subjected to western blot analysis described in Materials and Methods. β-actin is a loading control. Blots were representative of results from three independent experiments. (D) Cells were treated with vehicle (DMSO, as control) or 3 μM YC-1 for 6 h. The cell cycles were analyzed by flow cytometry. […]
(A)(B) Cells were treated with indicated concentration of YC-1 for 24 h (A) or 3 μM of YC-1 for indicated time (B). […] The levels of protein expression were quantitated and shown under blots. […] (D)(E) After 4 days of EZH2 knockdown, cells were incubated with 3 μM YC-1 for 4 h and detected cell viability (D) and protein contents (E). […]
Cells were lysed in PBS containing proteinase inhibitor and phosphatase inhibitors and sonication. Protein concentration was measured using the Bio-Rad protein assay kit (Bio-Rad Laboratories, Hercules, Calif., USA). […] The band intensities were analyzed and quantified by the Multi Gauge software (Fuji Photo Film).

In the next data set the test system is MDA-MB-468 cells. As to the kind of experiment: Morphological analysis of apoptosis by fluorescent staining (FDA/PI). The class given is cell-based, human. The following applies: 3 μM YC-1, after 6 h-treatment. The method, then:
(A) Cells were treated with indicated concentration of YC-1 for 6, 24, and 48 h. Cell viability was determined by MTT method. (B) MDA-MB-468 cells were treated with 3 μM YC-1 for 0, 6, and 12 h, and then stained with fluorescence diacetate (FDA) and propidium iodide (PI). Cell morphology was assessed by fluorescence microscopy with magnification ×20 (upper 3 rows) or ×40 (lowest row). (C) MDA-MB-468 cells were treated with 3 μM YC-1 for 24 h, cells were lysed and subjected to western blot analysis described in Materials and Methods. β-actin is a loading control. Blots were representative of results from three independent experiments. (D) Cells were treated with vehicle (DMSO, as control) or 3 μM YC-1 for 6 h. The cell cycles were analyzed by flow cytometry. (E) Cells were treated with indicated concentration of YC-1 and then performed with clonogenic assay.
Vital and apoptotic cells were observed under staining with fluorescein diacetate (2 mg/ml) and propidium iodide (4 mg/ml) for 10 min. Cells were visualized and recorded on a LeicaDC300 microscope with digital camera.

The next data set has as its system EED. As to the kind of experiment: Western blot of PRC2 protein expression in MDA-MB-468 cells. In kind it is cell-based, human. The note with it: 24 h. As to the method:
(§2) (A)(B) Cells were treated with indicated concentration of YC-1 for 24 h (A) or 3 μM of YC-1 for indicated time (B). Cells were harvested and performed with western blotting analysis. […] The levels of protein expression were quantitated and shown under blots. (C) Cells were transfected with EZH2 shRNA for 0, 1, 2, 3, and 4 days and collected for determination of cell viability (left) and protein expression (right). (D)(E) After 4 days of EZH2 knockdown, cells were incubated with 3 μM YC-1 for 4 h and detected cell viability (D) and protein contents (E). (F) Tumor specimens were isolated and protein was extracted for western blot analysis.
as §1

A further data set has as its system SUZ12. The data set is described as above. In kind it is cell-based, human. The following applies: 24 h. The method, then: as §2, §1
Another data set relates to RbAp48. The description is as above. The note with it: 24 h. The class given is cell-based, human. The method, then: as §2, §1

One may read the IC50 as the concentration that gives 50% inhibition. With `OCc1ccc(-c2nn(Cc3ccccc3)c3ccccc23)o1` [YC-1, 3-(5′-hydroxymethyl-2′-furyl)-1-benzyl indazole], the “inhibition of EZH2 protein” value with EZH2 (3 μM YC-1, 2 h) is listed as “about 18%”. Moreover, the IC50 with EZH2 (24 h-incubation, MDA-MB-468, read-out: IC50, inhibition of EZH2 expression) is 540 ± 40 nM. The “complex formation of EZH2-c-Cbl-ERK” value in the data set on EZH2-c-Cbl-ERK was “induced the complex formation”. For the same compound, the tumor growth entry in the data set on MDA-MB-468 xenograft (30 and 60 mg/kg by intraperitoneal injection) was “significantly inhibited the tumor growth”. In the data set on MDA-MB-468 xenograft (30 and 60 mg/kg/day ip), the “body weights of mice” value is given as “not affected” and the tumor weight entry is given as “dose-dependently reduced tumor weight”. The “earliest effects of caspase-3 activation detected” value in data set [1] (3 μM YC-1) stood at 4 h. Further, the “cleavage of caspases and PARP” value in data set [1] (3 μM YC-1, 24 h) is “clearly caused the cleavage of caspases and PARP”. The “morphological changes (apoptosis)” value with MDA-MB-468 cells is “obviously morphological changes with apoptotic characteristics”. Also, the EED protein expression entry with EED is “no effect”. Moreover, the SUZ12 protein expression result with SUZ12 was “effectively concentration-dependent suppression”. Besides, the RbAp48 protein expression result in the data set with RbAp48 was “effectively concentration-dependent suppression”.
